Test results as given in patent US20080044484A1, “Use of polymeric nanoparticles for vaccine delivery” (THE REGENTS OF THE UNIVERSITY OF CALIFORNIA, priority 2004, published 2008).

Tested on: T2 cells
Assay: IFNγ release by CTL (ELISA) after incubation with peptide-loaded T2 cells
Assay type: cell-based, human
Details: CTL elicited with the corresponding HER2/neu peptide, 20 h, 10^5 CTL/well
Procedure: In interferon gamma-release assays, 10^5 HER2/neu-specific CTL were co-incubated with 10^5 peptide-loaded T2 cells for 20 hours at 37° C. The concentrations of human interferon gamma in co-cultured supernatants were then determined by ELISA.

| Substance | Release of IFNγ by CTL, T2 cells loaded with the peptide (Day 1 after peptide loading) | Release of IFNγ by CTL, T2 cells loaded with the peptide (Day 3 after peptide loading) | Release of IFNγ by CTL, T2 cells loaded with the peptide (Day 5 after peptide loading) | Release of IFNγ by CTL, T2 cells loaded with the peptide (Day 8 after peptide loading) |
| --- | --- | --- | --- | --- |
| CLTSTVQLV MRYMILGLLALAAVCSA (CLTSTVQLVMRYMILGLLALAAVCSA) [HER789-797-ES] | 58 pg/mL | 78 pg/mL | 69 pg/mL | 98 pg/mL |
| CLTSTVQLV MTNKCLLQIALLLCFSTTA (CLTSTVQLVMTNKCLLQIALLLCFSTTA) [HER789-797-IS] | 69 pg/mL | 78 pg/mL | 87 pg/mL | 59 pg/mL |
| HLYQGCQVV MRYMILGLLALAAVCSA (HLYQGCQVVMRYMILGLLALAAVCSA) [HER48-56-ES] | 418 pg/mL | 218 pg/mL | 99 pg/mL | 101 pg/mL |
| HLYQGCQVV MTNKCLLQIALLLCFSTTALS (HLYQGCQVVMTNKCLLQIALLLCFSTTALS) [HER48-56-IS] | 288 pg/mL | 148 pg/mL | 155 pg/mL | 121 pg/mL |
| M A CLTSTVQLV A A A A A G (MACLTSTVQLVAAAAAG) [HER789-797-IN-AF] | 296 pg/mL | 327 pg/mL | 178 pg/mL | 117 pg/mL |
| M R CLTSTVQLV A A V C S A (MRCLTSTVQLVAAVCSA) [HER789-797-IN-ES] | 246 pg/mL | 312 pg/mL | 121 pg/mL | 107 pg/mL |
| MR HLYQGCQVV AAVCSA (MRHLYQGCQVVAAVCSA) [HER48-56-IN-ES] | 3368 pg/mL | 1349 pg/mL | 988 pg/mL | 228 pg/mL |
| MRYMILGLLALAAVCSA CLTSTVQLV (MRYMILGLLALAAVCSACLTSTVQLV) [ES-HER789-797] | 1824 pg/mL | 526 pg/mL | 168 pg/mL | 110 pg/mL |
| MRYMILGLLALAAVCSA HLYQGCQVV (MRYMILGLLALAAVCSAHLYQGCQVV) [ES-HER48-56] | 2894 pg/mL | 1876 pg/mL | 953 pg/mL | 589 pg/mL |
| MTNKCLLQIALLLCFSTTALS CLTSTVQLV (MTNKCLLQIALLLCFSTTALSCLTSTVQLV) [IS-HER789-797] | 1717 pg/mL | 315 pg/mL | 125 pg/mL | 104 pg/mL |
| MTNKCLLQIALLLCFSTTALS HLYQGCQVV (MTNKCLLQIALLLCFSTTALSHLYQGCQVV) [IS-HER48-56] | 3268 pg/mL | 1264 pg/mL | 943 pg/mL | 614 pg/mL |
